Source: ChEMBL document CHEMBL5291721, “A preclinical secondary pharmacology resource illuminates target-adverse drug reaction associations of marketed drugs” (Nat Commun, 2023)

Assays:
[1] = biological target: Bile salt export pump (Homo sapiens, UniProt O95342); type: functional
[2] = biological target: Voltage-gated inwardly rectifying potassium channel KCNH2 (Homo sapiens, UniProt Q12809); type: functional; settings: read-out: AC50
[3] = biological target: Acetylcholinesterase (Homo sapiens, UniProt P22303); type: functional
[4] = biological target: T1, Muscarinic acetylcholine receptor M2 (Homo sapiens, UniProt P08172)
T1 sequence (P08172 whole entry): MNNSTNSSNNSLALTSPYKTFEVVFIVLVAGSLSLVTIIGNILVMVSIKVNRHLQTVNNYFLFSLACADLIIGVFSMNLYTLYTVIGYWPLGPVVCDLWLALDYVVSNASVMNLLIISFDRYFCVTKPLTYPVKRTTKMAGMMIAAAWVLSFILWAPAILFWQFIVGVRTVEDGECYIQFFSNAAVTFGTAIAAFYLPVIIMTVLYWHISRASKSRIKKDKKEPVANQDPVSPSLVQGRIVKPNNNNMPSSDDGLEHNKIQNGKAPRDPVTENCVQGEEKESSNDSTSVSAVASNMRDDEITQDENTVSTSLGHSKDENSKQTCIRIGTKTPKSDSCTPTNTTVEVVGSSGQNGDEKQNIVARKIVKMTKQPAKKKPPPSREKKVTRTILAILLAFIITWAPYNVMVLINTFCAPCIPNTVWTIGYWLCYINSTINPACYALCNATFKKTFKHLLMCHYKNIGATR

[5] = biological target: D(1A) dopamine receptor (Homo sapiens, UniProt P21728)
[6] = biological target: D(3) dopamine receptor (Homo sapiens, UniProt P35462)
[7] = biological target: Prothrombin (Homo sapiens, UniProt P00734); type: functional
[8] = biological target: Histamine H3 receptor (Homo sapiens, UniProt Q9Y5N1)
[9] = biological target: T2, 5-hydroxytryptamine receptor 1A (Homo sapiens, UniProt P08908)
T2 sequence (P08908 whole entry): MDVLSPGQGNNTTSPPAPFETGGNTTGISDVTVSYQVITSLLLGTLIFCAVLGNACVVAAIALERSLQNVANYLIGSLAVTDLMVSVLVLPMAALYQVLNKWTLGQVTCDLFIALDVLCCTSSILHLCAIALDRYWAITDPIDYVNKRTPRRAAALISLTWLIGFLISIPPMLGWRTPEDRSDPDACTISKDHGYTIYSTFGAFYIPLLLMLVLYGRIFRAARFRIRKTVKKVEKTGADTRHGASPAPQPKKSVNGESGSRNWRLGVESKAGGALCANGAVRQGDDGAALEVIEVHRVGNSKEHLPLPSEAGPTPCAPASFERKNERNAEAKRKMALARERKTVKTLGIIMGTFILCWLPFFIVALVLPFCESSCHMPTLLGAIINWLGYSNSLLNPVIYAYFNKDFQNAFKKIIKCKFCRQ

[10] = biological target: 5-hydroxytryptamine receptor 2B (Homo sapiens, UniProt P41595); type: functional, cell-based
[11] = biological target: T3, Amine oxidase [flavin-containing] A (Homo sapiens, UniProt P21397); type: functional
T3 sequence (P21397 whole entry): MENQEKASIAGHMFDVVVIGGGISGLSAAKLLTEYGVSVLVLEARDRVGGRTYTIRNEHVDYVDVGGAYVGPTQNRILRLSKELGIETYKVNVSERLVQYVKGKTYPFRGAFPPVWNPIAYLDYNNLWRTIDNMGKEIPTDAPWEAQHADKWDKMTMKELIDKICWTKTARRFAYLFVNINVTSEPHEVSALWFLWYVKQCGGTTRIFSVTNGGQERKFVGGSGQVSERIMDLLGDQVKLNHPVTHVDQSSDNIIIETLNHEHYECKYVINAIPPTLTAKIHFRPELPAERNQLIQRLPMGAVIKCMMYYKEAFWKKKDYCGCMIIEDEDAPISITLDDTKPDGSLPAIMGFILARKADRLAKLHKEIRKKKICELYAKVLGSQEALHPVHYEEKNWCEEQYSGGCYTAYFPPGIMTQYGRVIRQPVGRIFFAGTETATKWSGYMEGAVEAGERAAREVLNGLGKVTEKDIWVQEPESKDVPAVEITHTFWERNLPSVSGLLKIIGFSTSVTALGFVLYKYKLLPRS

[12] = biological target: Mu-type opioid receptor (Homo sapiens, UniProt P35372)
[13] = biological target: cGMP-inhibited 3',5'-cyclic phosphodiesterase 3A (Homo sapiens, UniProt Q14432); type: functional
[14] = biological target: 3',5'-cyclic-AMP phosphodiesterase 4A (Homo sapiens, UniProt P27815); type: functional
[15] = biological target: Prostaglandin G/H synthase 1 (Homo sapiens, UniProt P23219); type: functional
[16] = biological target: Sodium-dependent noradrenaline transporter (Homo sapiens, UniProt P23975)
[17] = biological target: Sodium-dependent dopamine transporter (Homo sapiens, UniProt Q01959)
[18] = biological target: T4, Thromboxane A2 receptor (Homo sapiens, UniProt P21731); type: functional, cell-based
T4 sequence (P21731 whole entry): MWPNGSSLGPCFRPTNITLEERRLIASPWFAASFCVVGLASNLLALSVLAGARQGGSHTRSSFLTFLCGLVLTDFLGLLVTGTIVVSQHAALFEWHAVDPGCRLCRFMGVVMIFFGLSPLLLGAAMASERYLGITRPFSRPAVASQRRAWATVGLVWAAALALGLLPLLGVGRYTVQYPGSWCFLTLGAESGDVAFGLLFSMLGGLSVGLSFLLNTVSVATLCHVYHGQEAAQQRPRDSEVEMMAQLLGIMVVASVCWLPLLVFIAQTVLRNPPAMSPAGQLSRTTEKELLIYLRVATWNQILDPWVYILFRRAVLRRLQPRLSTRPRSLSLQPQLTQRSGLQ
Further: assay procedure not described here.

Chain of Mu-type opioid receptor (P35372 whole entry): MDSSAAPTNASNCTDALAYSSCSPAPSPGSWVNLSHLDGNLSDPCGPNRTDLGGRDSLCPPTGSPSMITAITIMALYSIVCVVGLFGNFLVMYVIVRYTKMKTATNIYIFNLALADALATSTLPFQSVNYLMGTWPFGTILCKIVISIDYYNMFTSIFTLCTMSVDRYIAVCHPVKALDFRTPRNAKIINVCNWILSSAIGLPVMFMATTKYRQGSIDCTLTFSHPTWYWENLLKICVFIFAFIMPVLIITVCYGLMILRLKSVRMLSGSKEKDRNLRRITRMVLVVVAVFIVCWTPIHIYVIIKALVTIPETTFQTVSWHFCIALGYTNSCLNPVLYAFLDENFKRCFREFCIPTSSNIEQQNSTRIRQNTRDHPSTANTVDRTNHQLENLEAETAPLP
Chain of cGMP-inhibited 3',5'-cyclic phosphodiesterase 3A (Q14432 whole entry): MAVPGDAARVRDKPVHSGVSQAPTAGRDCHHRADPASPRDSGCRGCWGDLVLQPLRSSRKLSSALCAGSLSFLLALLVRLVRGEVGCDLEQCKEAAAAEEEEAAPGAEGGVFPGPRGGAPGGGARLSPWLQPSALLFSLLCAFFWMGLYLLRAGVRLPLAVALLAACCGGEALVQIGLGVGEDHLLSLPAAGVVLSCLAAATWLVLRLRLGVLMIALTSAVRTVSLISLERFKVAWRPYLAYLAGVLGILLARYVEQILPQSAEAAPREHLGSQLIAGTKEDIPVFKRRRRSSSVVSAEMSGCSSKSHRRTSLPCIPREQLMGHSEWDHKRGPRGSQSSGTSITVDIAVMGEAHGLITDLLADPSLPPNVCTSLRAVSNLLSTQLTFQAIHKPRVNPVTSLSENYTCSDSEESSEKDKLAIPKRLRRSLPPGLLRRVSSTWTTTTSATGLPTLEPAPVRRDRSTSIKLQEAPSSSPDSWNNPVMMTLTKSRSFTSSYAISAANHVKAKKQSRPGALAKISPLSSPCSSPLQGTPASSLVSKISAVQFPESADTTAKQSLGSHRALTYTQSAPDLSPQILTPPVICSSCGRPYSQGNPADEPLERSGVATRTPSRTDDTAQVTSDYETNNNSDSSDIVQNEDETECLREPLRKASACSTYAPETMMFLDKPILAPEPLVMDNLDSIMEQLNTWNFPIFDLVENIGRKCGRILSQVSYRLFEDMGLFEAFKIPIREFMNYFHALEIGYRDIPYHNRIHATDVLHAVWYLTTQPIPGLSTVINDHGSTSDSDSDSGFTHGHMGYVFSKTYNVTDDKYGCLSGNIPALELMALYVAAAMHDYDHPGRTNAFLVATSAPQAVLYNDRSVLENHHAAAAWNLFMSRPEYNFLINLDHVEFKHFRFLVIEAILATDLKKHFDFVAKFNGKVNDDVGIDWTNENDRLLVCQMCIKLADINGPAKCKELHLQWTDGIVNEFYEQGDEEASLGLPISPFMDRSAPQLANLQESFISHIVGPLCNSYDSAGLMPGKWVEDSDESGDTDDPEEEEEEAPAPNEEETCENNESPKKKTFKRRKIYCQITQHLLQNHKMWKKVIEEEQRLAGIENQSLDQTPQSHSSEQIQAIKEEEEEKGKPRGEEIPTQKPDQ
Chain of Histamine H3 receptor (Q9Y5N1 whole entry): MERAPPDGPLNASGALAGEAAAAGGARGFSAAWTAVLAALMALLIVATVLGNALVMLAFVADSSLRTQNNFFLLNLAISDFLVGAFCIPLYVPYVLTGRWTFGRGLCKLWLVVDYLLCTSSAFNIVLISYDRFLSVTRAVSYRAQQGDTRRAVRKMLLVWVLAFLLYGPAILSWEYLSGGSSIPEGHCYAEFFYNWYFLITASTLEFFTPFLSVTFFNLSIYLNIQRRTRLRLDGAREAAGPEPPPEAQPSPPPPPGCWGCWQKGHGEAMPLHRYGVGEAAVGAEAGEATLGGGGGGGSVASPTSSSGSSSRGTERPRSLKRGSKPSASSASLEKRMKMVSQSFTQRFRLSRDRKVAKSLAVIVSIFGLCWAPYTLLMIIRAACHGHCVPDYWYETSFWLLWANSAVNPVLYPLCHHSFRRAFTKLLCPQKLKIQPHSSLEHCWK
Chain of Acetylcholinesterase (P22303 whole entry): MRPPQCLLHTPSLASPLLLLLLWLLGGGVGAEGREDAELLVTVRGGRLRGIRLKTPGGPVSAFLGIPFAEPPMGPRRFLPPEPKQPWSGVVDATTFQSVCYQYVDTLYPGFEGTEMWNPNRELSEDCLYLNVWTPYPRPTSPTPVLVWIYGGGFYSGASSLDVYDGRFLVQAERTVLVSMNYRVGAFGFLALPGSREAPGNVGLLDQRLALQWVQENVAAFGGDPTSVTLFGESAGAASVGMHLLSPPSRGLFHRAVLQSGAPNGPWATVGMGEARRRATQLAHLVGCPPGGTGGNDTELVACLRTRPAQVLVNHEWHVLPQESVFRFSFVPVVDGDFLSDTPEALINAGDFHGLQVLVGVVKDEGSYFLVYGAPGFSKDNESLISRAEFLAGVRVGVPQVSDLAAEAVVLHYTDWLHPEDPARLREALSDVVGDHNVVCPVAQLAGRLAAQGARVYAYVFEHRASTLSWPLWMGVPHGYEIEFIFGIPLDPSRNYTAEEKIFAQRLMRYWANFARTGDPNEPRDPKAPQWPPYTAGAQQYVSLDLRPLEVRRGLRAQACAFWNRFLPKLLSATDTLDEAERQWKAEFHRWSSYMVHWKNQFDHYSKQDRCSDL
Chain of Sodium-dependent noradrenaline transporter (P23975 whole entry): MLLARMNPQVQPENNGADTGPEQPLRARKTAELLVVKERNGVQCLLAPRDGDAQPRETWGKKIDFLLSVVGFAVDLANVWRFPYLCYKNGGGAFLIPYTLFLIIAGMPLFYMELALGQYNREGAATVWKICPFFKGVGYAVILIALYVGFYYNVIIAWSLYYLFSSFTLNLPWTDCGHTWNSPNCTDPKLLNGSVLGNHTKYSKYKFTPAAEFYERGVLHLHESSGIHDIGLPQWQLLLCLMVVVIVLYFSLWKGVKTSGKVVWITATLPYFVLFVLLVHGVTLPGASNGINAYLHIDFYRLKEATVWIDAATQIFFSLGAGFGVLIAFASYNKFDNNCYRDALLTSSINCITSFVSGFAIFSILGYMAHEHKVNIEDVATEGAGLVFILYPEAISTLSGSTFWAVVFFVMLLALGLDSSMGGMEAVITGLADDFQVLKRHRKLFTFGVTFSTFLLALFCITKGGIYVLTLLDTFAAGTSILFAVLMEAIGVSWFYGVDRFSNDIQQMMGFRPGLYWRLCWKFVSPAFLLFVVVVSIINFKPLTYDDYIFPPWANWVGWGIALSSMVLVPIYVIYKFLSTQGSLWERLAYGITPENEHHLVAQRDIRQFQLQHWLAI
Chain of 3',5'-cyclic-AMP phosphodiesterase 4A (P27815 whole entry): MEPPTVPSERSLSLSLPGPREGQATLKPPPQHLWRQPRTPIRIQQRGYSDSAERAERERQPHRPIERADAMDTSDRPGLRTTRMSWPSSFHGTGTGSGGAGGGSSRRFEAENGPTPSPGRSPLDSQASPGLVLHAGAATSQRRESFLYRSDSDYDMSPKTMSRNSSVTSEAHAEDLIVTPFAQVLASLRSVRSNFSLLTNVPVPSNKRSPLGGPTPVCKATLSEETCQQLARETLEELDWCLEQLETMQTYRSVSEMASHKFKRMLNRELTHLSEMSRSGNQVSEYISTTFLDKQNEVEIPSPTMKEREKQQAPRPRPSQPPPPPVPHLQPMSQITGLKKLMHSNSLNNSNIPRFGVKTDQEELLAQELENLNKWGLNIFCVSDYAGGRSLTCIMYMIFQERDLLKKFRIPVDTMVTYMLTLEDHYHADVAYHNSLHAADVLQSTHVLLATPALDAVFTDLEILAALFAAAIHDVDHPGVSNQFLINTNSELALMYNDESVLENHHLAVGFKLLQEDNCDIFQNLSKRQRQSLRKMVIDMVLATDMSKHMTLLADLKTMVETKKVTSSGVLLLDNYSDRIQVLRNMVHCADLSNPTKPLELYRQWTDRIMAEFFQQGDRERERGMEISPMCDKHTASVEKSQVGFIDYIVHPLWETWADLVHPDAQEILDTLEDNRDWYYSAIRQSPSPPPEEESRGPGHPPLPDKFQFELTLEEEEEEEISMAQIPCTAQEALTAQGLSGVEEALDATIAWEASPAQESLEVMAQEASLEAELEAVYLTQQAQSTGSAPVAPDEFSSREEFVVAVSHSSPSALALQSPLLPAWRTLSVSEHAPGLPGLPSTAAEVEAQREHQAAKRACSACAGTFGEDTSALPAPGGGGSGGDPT
Chain of D(1A) dopamine receptor (P21728 whole entry): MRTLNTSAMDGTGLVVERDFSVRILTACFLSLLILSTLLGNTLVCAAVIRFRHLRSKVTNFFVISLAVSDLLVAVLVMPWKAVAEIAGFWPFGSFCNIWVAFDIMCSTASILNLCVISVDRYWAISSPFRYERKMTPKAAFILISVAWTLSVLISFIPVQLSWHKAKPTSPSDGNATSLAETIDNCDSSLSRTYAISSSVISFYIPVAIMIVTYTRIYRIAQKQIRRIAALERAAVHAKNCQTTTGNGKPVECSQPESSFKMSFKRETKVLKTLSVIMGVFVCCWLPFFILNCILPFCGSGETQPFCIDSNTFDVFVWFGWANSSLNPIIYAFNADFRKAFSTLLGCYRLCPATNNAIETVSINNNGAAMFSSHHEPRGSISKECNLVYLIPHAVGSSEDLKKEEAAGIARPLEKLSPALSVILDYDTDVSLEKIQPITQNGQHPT
Chain of D(3) dopamine receptor (P35462 whole entry): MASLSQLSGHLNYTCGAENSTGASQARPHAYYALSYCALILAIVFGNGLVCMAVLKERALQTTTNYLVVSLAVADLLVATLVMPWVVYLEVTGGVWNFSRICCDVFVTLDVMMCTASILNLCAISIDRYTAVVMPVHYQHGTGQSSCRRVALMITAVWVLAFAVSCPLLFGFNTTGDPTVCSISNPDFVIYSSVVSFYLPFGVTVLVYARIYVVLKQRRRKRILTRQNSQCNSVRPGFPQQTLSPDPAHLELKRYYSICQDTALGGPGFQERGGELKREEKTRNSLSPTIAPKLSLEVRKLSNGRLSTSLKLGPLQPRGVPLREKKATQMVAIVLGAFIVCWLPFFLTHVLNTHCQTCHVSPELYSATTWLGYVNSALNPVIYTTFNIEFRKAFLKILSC

Row | SMILES | AC50 [1] [µM] | AC50 [2] [µM] | AC50 [3] [µM] | AC50 [4] [µM] | AC50 [5] [µM] | AC50 [6] [µM] | AC50 [7] [µM] | AC50 [8] [µM] | AC50 [9] [µM] | AC50 [10] [µM] | AC50 [11] [µM] | AC50 [12] [µM] | AC50 [13] [µM] | AC50 [14] [µM] | AC50 [15] [µM] | AC50 [16] [µM] | AC50 [17] [µM] | AC50 [18] [µM]
1 | C[C@H]1Oc2cc(cnc2N)-c2c(nn(C)c2C#N)CN(C)C(=O)c2ccc(F)cc21 [LORLATINIB] | 120 | > 30 |  |  |  |  |  |  |  |  |  |  |  |  |  |  |  | 
2 | Cc1cnc(NC(=O)C2=C(O)c3ccccc3S(=O)(=O)N2C)s1 [MELOXICAM] | 160 | > 30 |  |  |  |  |  |  |  |  |  |  |  |  |  |  |  | 
3 | CC[C@@H](CO)NC(=O)[C@@H]1C=C2c3cccc4[nH]cc(c34)C[C@H]2N(C)C1 [METHYLERGONOVINE] | > 300 | > 30 |  |  |  |  |  |  |  |  |  |  |  |  |  |  |  | 
4 | CNCCC=C1c2ccccc2CCc2ccccc21 [NORTRIPTYLINE] | > 300 | 2.59 |  |  |  |  |  |  |  |  |  |  |  |  |  |  |  | 
5 | COc1ccnc(C[S+]([O-])c2nc3ccc(OC(F)F)cc3[nH]2)c1OC (stereo not given) [PANTOPRAZOLE] | 190 | > 30 |  |  |  |  |  |  |  |  |  |  |  |  |  |  |  | 
6 | COc1ccc(Cc2nccc3cc(OC)c(OC)cc23)cc1OC [PAPAVERINE] | 46 | 5.6 |  |  |  |  |  |  |  |  |  |  |  |  |  |  |  | 
7 | CN(C)CCC(c1ccccc1)c1ccccn1 (stereo not given) [PHENIRAMINE] |  | > 30 | > 30 | 24.7 | > 30 | > 30 | > 30 | > 30 | > 30 | > 30 | > 30 | > 30 | > 30 | > 30 | > 30 | 26.3 | > 30 | > 30
8 | CNC[C@H](O)c1cccc(O)c1 [PHENYLEPHRINE] |  | > 30 | > 30 | > 30 | 18.1 | 4.68 | > 30 | > 30 | 1.31 | > 30 | > 30 | > 30 | > 30 | > 30 | > 30 | > 30 | 29.4 | > 30
9 | O=C1NC(=O)C(c2ccccc2)(c2ccccc2)N1 [PHENYTOIN] | > 300 |  |  |  |  |  |  |  |  |  |  |  |  |  |  |  |  | 
10 | CC(C)(C)C(=O)NCCCC(=O)O [PIVAGABINE] |  | > 30 | > 30 | > 30 | > 30 | > 30 | > 30 | > 30 | > 30 | > 30 | > 30 | > 30 | > 30 | > 30 | > 30 | > 30 | > 30 | > 30
11 | CC(C)C[C@H](CN)CC(=O)O [PREGABALIN] | > 300 | > 30 |  |  |  |  |  |  |  |  |  |  |  |  |  |  |  | 
12 | CCOc1cc(CC(=O)N[C@@H](CC(C)C)c2ccccc2N2CCCCC2)ccc1C(=O)O [REPAGLINIDE] | 9.33 | > 30 |  |  |  |  |  |  |  |  |  |  |  |  |  |  |  | 
13 | CCCN(CCC)CCc1cccc2c1CC(=O)N2 [ROPINIROLE] | > 300 |  |  |  |  |  |  |  |  |  |  |  |  |  |  |  |  | 
14 | CCCCNc1ccc(C(=O)OCCN(C)C)cc1 [TETRACAINE] |  | 25.9 | 8.1 | > 30 | > 30 | 18.5 | > 30 | 24.2 | > 30 | > 30 | 1.41 | > 30 | > 30 | > 30 | > 30 | > 30 | 21.9 | > 30
15 | CN1CCN(CCCN2c3ccccc3Sc3ccc(S(=O)(=O)N(C)C)cc32)CC1 [THIOPROPERAZINE] |  | 0.4 | 29 | 2.66 | 0.13 | 0.003 | > 30 | 13.7 | 6.09 | > 30 | > 30 | 11.6 | > 30 | > 30 | 23.6 | 16.8 | 13.3 | 9.38
16 | CCCCCCCCCCCCCCCC(=O)OC/C=C(C)/C=C/C=C(C)/C=C/C1=C(C)CCCC1(C)C [VITAMIN A PALMITATE] |  | > 30 | > 30 | > 30 | > 30 | > 30 | > 30 | > 30 | > 30 | > 30 | > 30 | > 30 | > 30 | > 30 | > 30 | > 30 | > 30 | > 30
